Measured values taken from patent US5840917A, “Phosphorylamides, their preparation and use” (Takeda Chemical Industries, Ltd., priority 1995, dated 1998).

molecular target: T1, Helicobacter pylori-derived urease (Helicobacter pylori, UniProt P69996); experiment: Screening of urease inhibitors (ammonia yield from urea); format: biochemical
T1 construct: an urease solution prepared from Helicobacter pylori; endogenous in cells
Method: Screening of Urease Inhibitors
One hundred (100) μl of 100 mM Bis-Tris buffer (pH 6.5) and 60 μl of an urease solution prepared from Helicobacter pylori were added to 20 μl of a test drug dissolved in 0.1% dimethylformamide solution. The mixture was incubated at room temperature for 30 minutes, and then 20 μl of 100 mM urea was added. The mixture was kept at room temperature for 10 minutes, and then the yielded ammonia in the incubation mixture was measured using a commercial test kit (Ammonia Test Wako®; Wako Pure Chemical). The percent inhibition against the yield of ammonia in the solvent addition group was calculated to obtain the IC50 value.

T1 sequence (P69996 whole entry, looked up): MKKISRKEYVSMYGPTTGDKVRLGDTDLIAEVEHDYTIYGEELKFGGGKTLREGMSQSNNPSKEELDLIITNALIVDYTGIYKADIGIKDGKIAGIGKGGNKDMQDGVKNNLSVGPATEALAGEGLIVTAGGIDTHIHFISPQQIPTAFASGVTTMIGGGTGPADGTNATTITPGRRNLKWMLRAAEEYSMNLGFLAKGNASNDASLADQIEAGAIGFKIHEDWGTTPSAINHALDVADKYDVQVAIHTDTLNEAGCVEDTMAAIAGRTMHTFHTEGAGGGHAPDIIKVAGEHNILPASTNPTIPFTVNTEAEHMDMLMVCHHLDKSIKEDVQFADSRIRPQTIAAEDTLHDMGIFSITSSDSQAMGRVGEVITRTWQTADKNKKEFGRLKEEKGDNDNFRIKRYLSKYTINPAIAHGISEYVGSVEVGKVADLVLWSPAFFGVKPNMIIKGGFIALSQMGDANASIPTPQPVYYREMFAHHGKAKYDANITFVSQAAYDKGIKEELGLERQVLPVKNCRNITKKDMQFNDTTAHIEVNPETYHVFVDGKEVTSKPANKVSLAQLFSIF

Point of comparison: `NP(N)(=O)NC(=O)C=Cc1ccc(Cl)c(Cl)c1` [compound 36, N-(Diaminophosphinyl)-3,4-dichlorocinnamamide], IC50 8.9 nM. Against it:
- COc1ccc(OCC(=O)NP(N)(N)=O)cc1 [Example 53, N-(Diaminophosphinyl)-4-methoxyphenoxyacetamide] — within 1.5-fold, 7.9 nM
- NP(N)(=O)NC(=O)c1c(F)cccc1F [Reference Example 9, N-(Diaminophosphinyl)-2,6-difluorobenzamide] — within 1.5-fold, 9.7 nM
- NP(N)(=O)NC(=O)c1ccc(Cl)cc1 [compound 7, N-(Diaminophosphinyl)-4-chlorobenzamide] — within 1.5-fold, 6.9 nM
- NP(N)(=O)NC(=O)Cn1cnc2ccccc21 [Example 83, N-(Diaminophosphinyl)-1-benzimidazolylacetamide] — within 1.5-fold, 7 nM
- NP(N)(=O)NC(=O)c1ccc(Br)s1 [Example 6, N-(Diaminophosphinyl)-5-bromo-2-thiophenecarboxamide] — 2.5-fold lower, 3.5 nM
- NP(N)(=O)NC(=O)c1sccc1Cl [Example 14, N-(Diaminophosphinyl)-3-chloro-2-thiophenecarboxamide] — 8.1-fold lower, 1.1 nM
- NP(N)(=O)NC(=O)CCc1ccc(Cl)cc1 [compound 39, N-(Diaminophosphinyl)-3-(4-chlorophenyl)propionamide] — 1.5-fold lower, 5.9 nM
- N#Cc1ccc(CCC(=O)NP(N)(N)=O)cc1 [compound 40, N-(Diaminophosphinyl)-3-(4-cyanophenyl)propionamide] — 2-fold higher, 18 nM
- Cc1cc(C(=O)NP(N)(N)=O)c(C)o1 [Example 49] — 3-fold higher, 27 nM
- NP(N)(=O)NC(=O)Cc1cccs1 [Example 80, N-(Diaminophosphinyl)-2-thienylacetamide] — 2-fold lower, 4.4 nM
- CS(=O)(=O)c1ccc(C(=O)NP(N)(N)=O)s1 [Example 18, N-(Diaminophosphinyl)-5-methanesulfonyl-2-thiophenecarboxamide] — within 1.5-fold, 11 nM
- NP(N)(=O)NC(=O)c1sccc1Br [Example 16, N-(Diaminophosphinyl)-3-bromo-2-thiophenecarboxamide] — 11-fold lower, 0.8 nM
- N#CC(=Cc1cccs1)C(=O)NP(N)(N)=O [Example 79, N-(Diaminophosphinyl)-2-cyano-3-(2-thienyl)propenamide] — within 1.5-fold, 6 nM
- NP(N)(=O)NC(=O)c1ccc(C(F)F)s1 [Example 13, N-(Diaminophosphinyl)-5-difluoromethyl-2-thiophenecarboxamide] — 1.7-fold lower, 5.2 nM
- NP(N)(=O)NC(=O)c1ccc([N+](=O)[O-])s1 [Example 10, N-(Diaminophosphinyl)-5-nitro-thiophenecarboxamide] — 2.5-fold lower, 3.6 nM
- NP(N)(=O)NC(=O)c1cc(Br)sc1Cl [Example 86, N-(Diaminophosphinyl)-5-bromo-2-chloro-3-thiophenecarboxamide] — 9.9-fold lower, 0.9 nM
- Cc1ccsc1C(=O)NP(N)(N)=O [Example 4, N-(Diaminophosphinyl)-3-methyl-2-thiophenecarboxamide] — within 1.5-fold, 6.8 nM
- Cc1nc2cc(C(=O)NP(N)(N)=O)ccc2o1 [Example 68, N-(Diaminophosphinyl)-2-methyl-5-benzoxazolecarboxamide] — 2-fold higher, 18 nM
- Cc1sc(C(=O)NP(N)(N)=O)cc1Cl [Example 34, N-(Diaminophosphinyl)-4-chloro-5-methyl-2-thiophenecarboxamide] — within 1.5-fold, 12 nM
- NP(N)(=O)NC(=O)c1ccc([N+](=O)[O-])cc1 [Reference Example 3, N-(Diaminophosphinyl)-4-nitrobenzamide] — within 1.5-fold, 6.6 nM
- NP(N)(=O)NC(=O)C=Cc1ccccc1 [Reference Example 4, N-(Diaminophosphinyl)cinnamamide] — within 1.5-fold, 10 nM
- CCc1occc1C(=O)NP(N)(N)=O [Example 51, N-(Diaminophosphinyl)-2-ethyl-3-furancarboxamide] — 2.5-fold higher, 22 nM
- NP(N)(=O)NC(=O)C=Cc1ccc(F)cc1F [compound 34, N-(Diaminophosphinyl)-2,4-difluorocinnamamide] — 2.5-fold higher, 22 nM
- Cc1csc(C(=O)NP(N)(N)=O)c1Cl [Example 90, N-(Diaminophosphinyl)-3-chloro-4-methyl-2-thiophenecarboxamide] — within 1.5-fold, 6.3 nM
- NP(N)(=O)NC(=O)CSc1nc2ccccc2s1 [Example 64, N-(Diaminophosphinyl)-2-benzothiazolylthioacetamide] — 3.1-fold lower, 2.9 nM
- NP(N)(=O)NC(=O)c1ccc2ccccc2c1 [compound 28, N-(Diaminophosphinyl)-2-naphthalenecarboxamide] — 3.9-fold higher, 35 nM
- NP(N)(=O)NC(=O)c1csc([N+](=O)[O-])c1 [Example 21, N-(Diaminophosphinyl)-5-nitro-3-thiophenecarboxamide] — 2.1-fold lower, 4.3 nM
- COc1ccc(C(=O)NP(N)(N)=O)cc1 [Reference Example 12, N-(diaminophosphinyl)-4-methoxybenzamide] — 4.9-fold higher, 44 nM
- NP(N)(=O)NC(=O)c1ccc(Br)o1 [Example 39, N-(Diaminophosphinyl)-5-bromo-2-furancarboxamide] — 4-fold lower, 2.2 nM
- NP(N)(=O)NC(=O)c1ccc(F)cc1F [Reference Example 10, N-(Diaminophosphinyl)-2,4-difluorobenzamide] — within 1.5-fold, 7.8 nM
- Cc1cc(C(=O)NP(N)(N)=O)sc1Br [Example 29, N-(Diaminophosphinyl)-5-bromo-4-methyl-2-thiophenecarboxamide] — within 1.5-fold, 8.1 nM
- NP(N)(=O)NC(=O)c1cc(Cl)c(Cl)s1 [Example 36, N-(Diaminophosphinyl)-4,5-dichloro-2-thiophenecarboxamide] — within 1.5-fold, 7.4 nM
- NP(N)(=O)NC(=O)c1cccc2ccccc12 [compound 26, N-(Diaminophosphinyl)-1-naphthalenecarboxamide] — within 1.5-fold, 13 nM
- NP(N)(=O)NC(=O)c1cccnc1 [Reference Example 2, N-(Diaminophosphinyl)-3-pyridinecarboxamide] — within 1.5-fold, 9.6 nM
- Nc1ccc(OCC(=O)NP(N)(N)=O)cc1 [compound 44, N-(Diaminophosphinyl)-4-aminophenoxyacetamide] — within 1.5-fold, 11 nM
- NP(N)(=O)NC(=O)c1cccs1 [Example 1, N-(Diaminophosphinyl)-2-thiophenecarboxamide] — 7.4-fold lower, 1.2 nM
- NP(N)(=O)NC(=O)COc1cccc(Cl)c1 [Example 58, N-(Diaminophosphinyl)-3-chlorophenoxyacetamide] — 3-fold lower, 3 nM
- NP(N)(=O)NC(=O)C=Cc1cccs1 [Example 78, N-(Diaminophosphinyl)-3-(2-thienyl)propenamide] — 1.9-fold lower, 4.7 nM
- Cc1cc(C)c(C)c(OCC(=O)NP(N)(N)=O)c1 [Example 56, N-(Diaminophosphinyl)-2,3,5-trimethylphenoxyacetamide] — 4.6-fold higher, 41 nM
- NP(N)(=O)NC(=O)c1sc2ccccc2c1Cl [Example 74, N-(Diaminophosphinyl)-3-chloro-2-benzothiophenecarboxamide] — 1.7-fold lower, 5.1 nM
- Nc1ccccc1CCC(=O)NP(N)(N)=O [compound 43, N-(Diaminophosphinyl)-3-(2-aminophenyl) propionamide] — 8-fold higher, 71 nM
- NP(N)(=O)NC(=O)c1cc2ccccc2o1 [Example 67, N-(Diaminophosphinyl)-2-benzofurancarboxamide] — within 1.5-fold, 6.1 nM
- Cc1c(C(=O)NP(N)(N)=O)csc1Cl [Example 87, N-(Diaminophosphinyl)-5-chloro-4-methyl-3-thiophenecarboxamide] — 3.6-fold lower, 2.5 nM
- Cc1cscc1C(=O)NP(N)(N)=O [Example 85, N-(Diaminophosphinyl)-4-methyl-3-thiophenecarboxamide] — 4-fold lower, 2.2 nM
- NP(N)(=O)NC(=O)CSc1nc2cc(Cl)ccc2s1 [Example 65, N-(Diaminophosphinyl)-5-chloro-2-benzothiazolylthioacetamide] — 3.9-fold lower, 2.3 nM
- Cc1ccc(C(=O)NP(N)(N)=O)o1 [Example 43, N-(Diaminophosphinyl)-5-methyl-2-furancarboxamide] — within 1.5-fold, 6.2 nM
- Cc1cc(C(=O)NP(N)(N)=O)c(C(F)(F)F)o1 [Example 48, N-(Diaminophosphinyl)-2-trifluoromethyl-5-methyl-3-furancarboxamide] — within 1.5-fold, 8.3 nM
- NP(N)(=O)NC(=O)c1ccccc1[N+](=O)[O-] [compound 18, N-(Diaminophosphinyl)-2-nitrobenzamide] — 1.7-fold lower, 5.1 nM
- COc1csc(C(=O)NP(N)(N)=O)c1 [Example 24, N-(Diaminophosphinyl)-4-methoxy-2-thiophenecarboxamide] — within 1.5-fold, 9.1 nM
- NP(N)(=O)NC(=O)C=Cc1ccc(F)cc1 [compound 20, N-(Diaminophosphinyl)-4-fluorocinnamamide] — within 1.5-fold, 6.5 nM
- Cc1ccc(C(=O)NP(N)(N)=O)cc1 [Reference Example 15, N-(Diaminophosphinyl)-4-methylbenzamide] — 1.9-fold higher, 17 nM
- NP(N)(=O)NC(=O)c1cc(Cl)cs1 [Example 84, N-(Diaminophosphinyl)-4-chloro-2-thiophenecarboxamide] — 3.6-fold lower, 2.5 nM
- N#Cc1ccc(OCC(=O)NP(N)(N)=O)cc1 [Example 57, N-(Diaminophosphinyl)-4-cyanophenoxyacetamide] — within 1.5-fold, 7.5 nM
- NP(N)(=O)NC(=O)c1csc(C(F)F)c1 [Example 31, N-(Diaminophosphinyl)-5-difluoromethyl-3-thiophenecarboxamide] — within 1.5-fold, 7.1 nM
- Cc1oc(Cl)cc1C(=O)NP(N)(N)=O [Example 50, N-(Diaminophosphinyl)-5-chloro-2-methyl-3-furancarboxamide] — within 1.5-fold, 7.5 nM
- NP(N)(=O)NC(=O)c1cc(Br)cs1 [Example 8, N-(Diaminophosphinyl)-4-bromo-thiophenecarboxamide] — 2.1-fold lower, 4.3 nM
- NP(N)(=O)NC(=O)C=Cc1cccc(F)c1 [compound 35, N-(Diaminophosphinyl)-3-fluorocinnamamide] — 1.9-fold higher, 17 nM
- NP(N)(=O)NC(=O)c1cc(F)cc(F)c1 [compound 21, N-(Diaminophosphinyl)-3,5-difluorobenzamide] — within 1.5-fold, 7.9 nM
